In US20240025863A1, “SOS1 PROTEIN DEGRADERS, PHARMACEUTICAL COMPOSITIONS THEREOF, AND THEIR THERAPEUTIC APPLICATIONS” (BioTheryX, Inc., priority 2020, published 2024):

Assays:
Type in all cases: cell-based
H358 cells (G12C) = assay: Cell viability assay (CellTiter-Glo), H358 cells; conditions: Homo sapiens, NCI-H358, 72 h; H358 cells, 3 days incubation, CellTiter-Glo luminescence; read-out: Inhibition of Cancerous Cells IC50 H358 (G12C)
Procedure, shortened: (§1)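 Viability is measured by CellTiter-Glo luminescence following a 3-day compound incubation at 37 °C in medium with 2.5% FBS.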

SW480 cells (G12V) = assay: Cell viability assay (CellTiter-Glo), SW480 cells; conditions: Homo sapiens, 72 h; SW480 cells, 3 days incubation, CellTiter-Glo luminescence; read-out: Inhibition of Cancerous Cells IC50 SW480 (G12V)
Procedure, shortened: as §1

AsPC-1 cells (G12D) = assay: Cell viability assay (CellTiter-Glo), AsPC-1 cells; conditions: Homo sapiens, ASPC1, 72 h, 3 days incubation, CellTiter-Glo luminescence, read-out: Inhibition of Cancerous Cells IC50 AsPC-1 (G12D)
Protocol: H358, H23, SW48, and AsPC-1 cells were cultured in RPMI 1640 media supplemented with 10% fetal bovine serum, streptomycin, and penicillin. Lovo and SW480 cells were cultured in DMEM media supplemented with 10% fetal bovine serum, streptomycin, and penicillin. The cell lines were plated in their respective medium supplemented with 2.5% fetal bovine serum, streptomycin, and penicillin. All cell lines were plated in white walled 96-well plates at 2,000 cells/well or 384-well plates at 500 cells/well, except Lovo, which were plated at 4,000 or 1,000 cells/well, respectively. The cells were incubated in DMSO (control) or a compound for 3 days at 37° C. under 5% CO2. A CELLTITER-GLO® reagent (100 μL) was then added to each well. After a 10 min incubation with shaking, luminescence was measured using an ENVISION® multimode plate reader.

Lovo cells (G13D) = assay: Cell viability assay (CellTiter-Glo), Lovo cells; conditions: Homo sapiens, 72 h; Lovo cells, 3 days incubation, CellTiter-Glo luminescence; read-out: Inhibition of Cancerous Cells IC50 Lovo (G13D)
Procedure, shortened: as §1

SW48 cells (wt) = assay: Cell viability assay (CellTiter-Glo), SW48 cells; conditions: Homo sapiens, 72 h; SW48 cells, 3 days incubation, CellTiter-Glo luminescence; read-out: Inhibition of Cancerous Cells IC50 SW48 (wt)
Procedure, shortened: as §1

IC50 (H358 cells (G12C)) [nM] | IC50 (SW480 cells (G12V)) [nM] | IC50 (AsPC-1 cells (G12D)) [nM] | IC50 (Lovo cells (G13D)) [nM] | IC50 (SW48 cells (wt)) [nM] | Structure (SMILES)
> 10000 | 5200 | > 10000 | 6600 | 5900 | COc1cc2c(N[C@H](C)c3cccc(Br)c3)nc(C)nc2cc1OCCCCCCCCC(=O)N1CCC(c2cc(F)cc3c2CN(C2CCC(=O)NC2=O)C3=O)CC1 (stereo partly drawn) [Compound A61, 3-(4-(1-(9-((4-(((R)-1-(3-Bromophenyl)ethyl)amino)-6-methoxy-2-methyl-quinazolin-7-yl)oxy)nonanoyl)piperidin-4-yl)-6-fluoro-1-oxoisoindolin-2-yl)piperidine-2,6-dione]
> 10000 | 1300 | > 10000 | 4000 | 2400 | COc1cc2c(N[C@H](C)c3cccc(Br)c3)nc(C)nc2cc1OCCCCCCCCCCNc1cccc2c1CN(C1CCC(=O)NC1=O)C2=O (stereo partly drawn) [Compound A62, 3-(4-((10-((4-(((R)-1-(3-Bromophenyl)ethyl)amino)-6-methoxy-2-methyl-quinazolin-7-yl)oxy)decyl)amino)-1-oxoisoindolin-2-yl)piperidine-2,6-dione]
130 | 650 | 3500 | < 14 | 20 | COc1cc2c(N[C@H](C)c3cccc(Br)c3)nc(C)nc2cc1OCCCCCC(=O)N(C)Cc1scc2c1CN(C1CCC(=O)NC1=O)C2=O (stereo partly drawn) [Compound A63, 6-((4-(((R)-1-(3-Bromophenyl)ethyl)amino)-6-methoxy-2-methylquinazolin-7-yl)oxy)-N-((5-(2,6-dioxopiperidin-3-yl)-4-oxo-5,6-dihydro-4H-thieno[3,4-c]pyrrol-1-yl)methyl)-N-methylhexanamide]
> 10000 | 3100 | 5500 | 2600 | 1200 | COc1cc2c(N[C@H](C)c3cccc(Br)c3)nc(C)nc2cc1OCCCCCCCCCCCCc1scc2c1CN(C1CCC(=O)NC1=O)C2=O (stereo partly drawn) [Compound A64, 3-(1-(12-((4-(((R)-1-(3-Bromophenyl)ethyl)amino)-6-methoxy-2-methyl-quinazolin-7-yl)oxy)dodecyl)-4-oxo-4H-thieno[3,4-c]pyrrol-5(6H)-yl)piperidine-2,6-dione]
1600 | 1100 | 3300 | 1100 | 970 | COc1cc2c(N[C@H](C)c3cccc(Br)c3)nc(C)nc2cc1OCCN1CCC(CN2CCC(c3cc(F)cc4c3CN(C3CCC(=O)NC3=O)C4=O)CC2)CC1 (stereo partly drawn) [Compound A65, 3-(4-(1-((1-(2-((4-(((R)-1-(3-Bromophenyl)ethyl)amino)-6-methoxy-2-methyl-quinazolin-7-yl)oxy)ethyl)piperidin-4-yl)methyl)piperidin-4-yl)-6-fluoro-1-oxoisoindolin-2-yl)-piperidine-2,6-dione]
8000 | 9700 | > 10000 | 5800 | 3800 | COc1cc2c(N[C@H](C)c3cccc(Br)c3)nc(C)nc2cc1OCCN1CCN(CCN2CCC(c3cc(F)cc4c3CN(C3CCC(=O)NC3=O)C4=O)CC2)CC1 (stereo partly drawn) [Compound A66, 3-(4-(1-(2-(4-(2-((4-(((R)-1-(3-Bromophenyl)ethyl)amino)-6-methoxy-2-methyl-quinazolin-7-yl)oxy)ethyl)piperazin-1-yl)ethyl)piperidin-4-yl)-6-fluoro-1-oxoisoindolin-2-yl)piperidine-2,6-dione]
1700 | 2700 | 2100 | 1000 | 1100 | COc1cc2c(N[C@H](C)c3cccc(Br)c3)nc(C)nc2cc1OCCN1CCN(CCN2CCC(c3cc4c(cc3F)C(=O)N(C3CCC(=O)NC3=O)C4)CC2)CC1 (stereo partly drawn) [Compound A67, 3-(5-(1-(2-(4-(2-((4-(((R)-1-(3-Bromophenyl)ethyl)amino)-6-methoxy-2-methyl-quinazolin-7-yl)oxy)ethyl)piperazin-1-yl)ethyl)piperidin-4-yl)-6-fluoro-1-oxoisoindolin-2-yl)piperidine-2,6-dione]
690 | 530 | 1500 | 630 | 500 | COc1cc2c(N[C@@H](C)c3cc(N)cc(C(F)(F)F)c3)nc(C)nc2cc1OCCCCCCCN1CCC(c2cc3c(cc2F)C(=O)N(C2CCC(=O)NC2=O)C3)CC1 (stereo partly drawn) [Compound A68, 3-(5-(1-(7-((4-(((S)-1-(3-Amino-5-(trifluoromethyl)phenyl)ethyl)amino)-6-methoxy-2-methylquinazolin-7-yl)oxy)heptyl)piperidin-4-yl)-6-fluoro-1-oxoisoindolin-2-yl)piperidine-2,6-dione]
2400 | 980 | 3000 | 720 | 1100 | CN[C@@H](C)C(=O)N[C@H](C(=O)N1CCC[C@H]1c1nc(C(=O)c2cccc(OCCCCCCOc3cc4nc(C)nc(N[C@H](C)c5cccc(Br)c5)c4cc3OC)c2)cs1)C1CCCCC1 [Compound B1, (S)—N—((S)-2-((S)-2-(4-(3-((6-((4-(((R)-1-(3-bromophenyl)ethyl)amino)-6-methoxy-2-methylquinazolin-7-yl)oxy)hexyl)oxy)benzoyl)thiazol-2-yl)pyrrolidin-1-yl)-1-cyclohexyl-2-oxoethyl)-2-(methylamino)propanamide]
980 | 500 | 1200 | 480 | 980 | CN[C@@H](C)C(=O)N[C@H](C(=O)N1CCC[C@H]1c1nc(C(=O)c2cccc(OCCCCCCCCOc3cc4nc(C)nc(N[C@H](C)c5cccc(Br)c5)c4cc3OC)c2)cs1)C1CCCCC1 [Compound B2, (S)—N—((S)-2-((S)-2-(4-(3-((8-((4-(((R)-1-(3-Bromophenyl)ethyl)amino)-6-methoxy-2-methylquinazolin-7-yl)oxy)octyl)oxy)benzoyl)thiazol-2-yl)pyrrolidin-1-yl)-1-cyclohexyl-2-oxoethyl)-2-(methylamino)propanamide]
2200 | 2300 | 5000 | 1400 | 4700 | CN[C@@H](C)C(=O)N[C@H](C(=O)N1CCC[C@H]1c1nc(C(=O)c2cccc(OCCCCCCCCCCOc3cc4nc(C)nc(N[C@H](C)c5cccc(Br)c5)c4cc3OC)c2)cs1)C1CCCCC1 [Compound B3, (S)—N—((S)-2-((S)-2-(4-(3-((10-((4-(((R)-1-(3-Bromophenyl)ethyl)amino)-6-methoxy-2-methylquinazolin-7-yl)oxy)decyl)oxy)benzoyl)thiazol-2-yl)pyrrolidin-1-yl)-1-cyclohexyl-2-oxoethyl)-2-(methylamino)propanamide]
7600 | > 10000 | > 10000 | 4000 | > 10000 | CN[C@@H](C)C(=O)N[C@H](C(=O)N1CCC[C@H]1c1nc(C(=O)c2cccc(OCCCCCCCCCCCCOc3cc4nc(C)nc(N[C@H](C)c5cccc(Br)c5)c4cc3OC)c2)cs1)C1CCCCC1 [Compound B4, (S)—N—((S)-2-((S)-2-(4-(3-((12-((4-(((R)-1-(3-Bromophenyl)ethyl)amino)-6-methoxy-2-methylquinazolin-7-yl)oxy)dodecyl)oxy)benzoyl)thiazol-2-yl)pyrrolidin-1-yl)-1-cyclohexyl-2-oxoethyl)-2-(methylamino)propanamide]
650 | 440 | 1500 | 770 | 750 | CN[C@@H](C)C(=O)N[C@H](C(=O)N1C[C@@H](NC(=O)CCCCCCOc2cc3nc(C)nc(N[C@H](C)c4cccc(Br)c4)c3cc2OC)C[C@H]1C(=O)N[C@@H]1CCCc2ccccc21)C1CCCCC1 [Compound B5, (2S,4S)-4-(7-((4-(((R)-1-(3-bromophenyl)ethyl)amino)-6-methoxy-2-methyl-quinazolin-7-yl)oxy)heptanamido)-1-((S)-2-cyclohexyl-2-((S)-2-(methylamino)propanamido)-acetyl)-N—((R)-1,2,3,4-tetrahydronaphthalen-1-yl)pyrrolidine-2-carboxamide]
1300 | 610 | 1200 | 680 | 920 | COc1cc2c(N[C@H](C)c3cccc(Br)c3)nc(C)nc2cc1OCCCCCCCCNC(=O)[C@H](CC(C)C)NC(=O)[C@@H](O)[C@H](N)Cc1ccccc1 [Compound B7, (S)-2-((2S,3R)-3-Amino-2-hydroxy-4-phenylbutanamido)-N-(8-((4-(((R)-1-(3-bromophenyl)ethyl)amino)-6-methoxy-2-methylquinazolin-7-yl)oxy)octyl)-4-methylpentanamide]
